In patent publication US12577532B2, “Xeno-free and transgene-free reprograming of mesenchymal stem cells toward neural progenitor cells” (UNIVERSITY OF CENTRAL FLORIDA RESEARCH FOUNDATION, INC., priority 2019, dated 2026):

Key:
[1] = tested on: iNSC-MSC; test: Differentiation potential of iNSC-MSC under serum free conditions (immunofluorescence); format: cell-based; details: methods using decitabine (method 2 & 4) versus methods without
Source text: The resultant cells of the four methods express neural differentiation markers Bill, GFAP and NeuN, especially in the surrounded areas of the spheres. On the other hand, they keep NSC markers Sox2, Sox1 and CD90 on the spheres. […] All nuclei were counterstained with DAPI. Scale bar, 50 μm.

[2] = tested on: MSC; test: Reprogramming of MSCs toward neural progenitor spheres (neurosphere production); format: cell-based
Protocol: MSC media contains DMEM F:12, 10% KSR, 5% Glutamax, 5% NNEA, 1% Penicillin/streptomycin. We used 12 well treated plates for production.
MSCs are seeded in culture media and allowed to grow up under serum-free conditions until 80% confluence on adherent conditions using laminin as coat.
At stage 1, fresh media and NSC exosomes (and in two methodologies also we used pluripotent cells to enhance de-differentiation) as a source of linage specific signals, are provided to the cultured MSCs (typically following decitabine treatment), and exposed to NSC exosomes for 1-5 days. Following stage 1, (typically at day 5) stage 2 involves switching out media and NSC exosomes and exposing the cells to the fresh media and NSC exosomes for 5-15 days. After stage 2, (typically at day 15 from the start of stage 1) stage 3 involves switching out media and NSC exosomes with fresh media lacking NSC exosomes and allowing the cells to grow for 5-7 days. After stage 3, (typically at day 20-22 from the start of stage 1), neural progenitor spheres (the primary colonies) are isolated from the culture. After isolation occurs, the neurospheres are picked to keep on suspension for expansion and experimentation. […]

Structure (SMILES): Nc1ncn([C@H]2C[C@H](O)[C@@H](CO)O2)c(=O)n1 [decitabine, 5-aza-2′-deoxycytidine]
- immunofluorescence intensities for BII tubulin [1]: significant less iimmunofluorescence intensities
- number of primary neurospheres produced ([2]; MSC cultured with NSC exosomes, day 21 of production (FIG. 2B)): enhances the number of spheres produced
- spheres produced ([2]; MSC treated without NSC exosomes): no spheres were found produced
